From patent US6057311A, “Benzodiazonine derivatives binding to cholecystokinin or gastrin receptors” (James Black Foundation Limited, priority 1996, dated 2000) come the findings set out here.

The target in one assay is T1, CCKA (Cavia porcellus, UniProt Q63931).
T1 construct: The pancreatata were removed from male guinea-pigs; from tissue; host or cells: pancreas of male Dunkin Hartley guinea pigs, membranes
T1 sequence (Q63931 1-430): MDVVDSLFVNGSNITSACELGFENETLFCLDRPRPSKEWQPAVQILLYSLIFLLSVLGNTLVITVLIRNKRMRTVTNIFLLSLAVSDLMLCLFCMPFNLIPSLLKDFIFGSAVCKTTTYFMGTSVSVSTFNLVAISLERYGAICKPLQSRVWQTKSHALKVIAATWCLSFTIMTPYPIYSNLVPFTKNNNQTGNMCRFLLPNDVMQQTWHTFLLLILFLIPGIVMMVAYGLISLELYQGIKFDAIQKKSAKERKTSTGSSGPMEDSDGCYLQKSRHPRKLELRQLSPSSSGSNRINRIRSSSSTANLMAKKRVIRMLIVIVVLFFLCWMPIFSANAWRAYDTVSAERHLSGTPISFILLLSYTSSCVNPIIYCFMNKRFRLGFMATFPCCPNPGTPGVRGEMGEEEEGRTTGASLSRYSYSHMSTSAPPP
As to the kind of experiment: CCKA binding assay, guinea pig pancreas membranes ([125I]-CCK8(S)). The settings on record: [125I]-CCK8(S) 200 pM, 0.375 μM PD134,308, 150 min at 21±3° C.; for pKi (Guinea pig pancreas): pH 7.2; for Ki: pH 7.2, read-out: pKi (Guinea pig pancreas) (converted). The procedure:
The compounds of the examples were also tested in a CCKA binding assay as follows:
The pancreatata were removed from male guinea-pigs (200-300 g; Dunkin Hartley) and placed in ice-cold HEPES buffer (pH 7.2@21±3° C.). The pancreatata were homogenised in 40 ml ice-cold HEPES buffer using a polytron (Brinkmann, PT10, setting 10) 4×1 second. The homogenate was centrifuged at 39,800 g for 15 min at 4° C. The supernatant was discarded and the pellet re-suspended using a Teflon-in-glass homogeniser in 20 volumes of fresh buffer and re-centrifuged as above. The final pellet was re-suspended using a Teflon-in-glass homogeniser to a tissue concentration of 1 mg.ml^-1 (original wet weight), and filtered through 500 μm pore-size Nytex mesh.
The membranes (400 μl; containing 0.375 μM PD134,308) were incubated for 150 minutes at 21±3° C. in a final volume of 0.5 ml with HEPES buffer containing [^125 I]-CCK8 (S) (50 μl; 200 pM) and competing compound. Total and non-specific binding of [^125 I]-CCK8 (S) were defined using 50 μl of buffer and 50 μl of 100 nM L-364,718 respectively. The assay was terminated by rapid filtration through pre-soaked Whatman GF/B filters using a Brandell Cell Harvester. The filters were washed (3×3 ml) with ice-cold 50 mM Tris HCl (pH 7.4 at 4° C.) and bound radioactivity was determined by counting (1 min) in a gamma counter.

A further assay has as its target T2, CCKB receptor (Mus musculus, UniProt P56481).
T2 construct: The cortex was dissected, weighed and homogenised in 40 ml ice-cold buffer; tissue Charles River (animals); host or cells: cerebral cortex of male CD1 mice, membranes
T2 sequence (P56481 1-453): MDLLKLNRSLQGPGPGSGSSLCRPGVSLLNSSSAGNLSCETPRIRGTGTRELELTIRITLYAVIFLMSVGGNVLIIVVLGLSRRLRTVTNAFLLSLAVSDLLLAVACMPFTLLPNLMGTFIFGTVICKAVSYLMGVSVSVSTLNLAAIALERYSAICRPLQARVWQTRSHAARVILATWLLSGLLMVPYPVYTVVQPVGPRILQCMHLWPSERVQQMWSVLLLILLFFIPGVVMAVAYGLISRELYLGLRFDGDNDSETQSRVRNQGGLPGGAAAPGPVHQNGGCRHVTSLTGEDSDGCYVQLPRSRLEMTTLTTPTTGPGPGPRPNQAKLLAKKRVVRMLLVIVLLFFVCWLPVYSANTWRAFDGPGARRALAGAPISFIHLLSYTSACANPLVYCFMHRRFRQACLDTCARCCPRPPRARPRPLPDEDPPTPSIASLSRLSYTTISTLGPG
As to the kind of experiment: radioligand binding assay at the CCKB receptor in mouse cortical membranes ([125I]-CCK8S). The settings on record: [125I]-CCK8S 200 pM, 150 min at 21±3° C.; for pKi (Mouse cortex): pH 7.2; for Ki: pH 7.2, read-out: pKi (Mouse cortex) (converted). The procedure:
The compounds of the examples were tested for binding at the CCKB receptor in mouse cortical membranes by means of a radioligand binding assay. The procedure was as follows:
The whole brains from male mice (CD1 22-25 g; Charles River) were removed and placed in ice-cold buffer (pH7.2@21±3° C.) of the following composition (mM); 10 HEPES, 130 NaCl, 4.7 KCl, 5 MgCl2, 1 EDTA and containing 0.25 g.1^-1 bacitracin. The cortex was dissected, weighed and homogenised in 40 ml ice-cold buffer using a Teflon-in-glass homogeniser. The homogenate was centrifuged at 39,800 g for 20 min at 4° C., the supernatant discarded and the pellet resuspended by homogenisation in fresh buffer. The homogenate was recentrifuged (39,800 g; 20 min @4° C.) and the final pellet was resuspended in HEPES buffer to give a tissue concentration of 2 mg.ml^-1 (original wet weight).
The membranes (400 μl) were incubated for 150 min at 21±3° C. in a final volume of 0.5 ml with HEPES buffer containing [^125 I]-CCK8S (0.05 ml; 200 pM NEN 2200 Ci.mmol^-1) and competing compound. Total and non-specific binding of [^125 I]-CCK8S were defined using 0.05 ml of buffer and 0.05 ml of […] L-365,260, respectively. The assay was terminated by rapid filtration through pre-soaked Whatman GF/B filters using a Brandell Cell harvester. The filters were washed (3×3 ml) with ice-cold 50 mM Tris-HCl (pH7.4@4° C.) and bound radioactivity determined by counting (1 min.) in a gamma-counter.

In the case of “1-benzyl-7-hydroxy-4-(3-methylphenyl)carbamyl-2-oxo-2,3,4,5,6,7-hexahydro- 1H-1,4-benzodiazonine (isomer 1) [Example 7]”, the “pKi (Guinea pig pancreas)” value on CCKA is 5.8. Further, the “pKi (Mouse cortex)” value at CCKB receptor came to 5.0.

With `O=C(O)CCC(=O)N1CCC(=O)c2ccccc2N(Cc2ccccc2)C(=O)C1CC12CC3CC(CC(C3)C1)C2` (racemic) [Example 33, (R/S)-3-(1-adamantyl)methyl-1-benzyl-4-(2-carboxy)ethylcarbonyl-2,7-dioxo-2,3,4,5,6,7-hexahydro-1H-1,4-benzodiazonine], the Ki is 6.31 µM on CCKA and 10 µM at CCKB receptor. Regarding `CC(=O)N1CCC(=O)c2ccccc2N(Cc2ccccc2)C(=O)C1CC12CC3CC(CC(C3)C1)C2` (racemic) [Example 34, (R/S)-4-acetyl-3-(1-adamantyl)methyl-1-benzyl-2,7-dioxo-2,3,4,5,6,7-hexahydro-1H-1,4-benzodiazonine], the Ki was 2.51 µM on CCKA and 3.98 µM at CCKB receptor. As for `Nc1cccc(CN2C(=O)C(CC34CC5CC(CC(C5)C3)C4)N(C(=O)CC(=O)O)CCC(=O)c3ccccc32)c1` (racemic) [Example 35, (R/S)-3-(1-adamantyl)methyl-1-(3-amino)benzyl-4-carboxymethylcarbonyl-2,7-dioxo-2,3,4,5,6,7-hexahydro-1H-1,4-benzodiazonine], the Ki is 7.94 µM at CCKA and 2.51 µM on CCKB receptor. For `CC(=O)N1[C@H](CC23CC4CC(CC(C4)C2)C3)C(=O)N(Cc2ccccc2)c2ccc(F)cc2C(=O)C[C@H]1C(=O)NCC(=O)O` (relative stereo) [Example 61, (+/-)-trans-4-acetyl-3-(1-adamantyl)methyl-1-benzyl-5-carboxymethylaminocarbonyl-2,7-dioxo-9-fluoro-2,3,4,5,6,7-hexahydro-1H-1,4-benzodiazonine], in that order: 12.6 µM and 0.398 µM. For `CC(=O)N1[C@H](CC23CC4CC(CC(C4)C2)C3)C(=O)N(Cc2ccccc2)c2ccccc2C(=O)C[C@H]1C(=O)N1CCC[C@H]1C(=O)O` (single isomer, unassigned; isomer 1) [Example 27], the “pKi (Guinea pig pancreas)” value at CCKA was 5.0. For the same molecule, on CCKB receptor, the “pKi (Mouse cortex)” value is reported as 5.0. Turning to `CC(=O)N1[C@H](CC23CC4CC(CC(C4)C2)C3)C(=O)N(Cc2ccccc2)c2ccccc2C(=O)C[C@H]1C(=O)N(C)CC(=O)O` (single isomer, unassigned; isomer 1) [Example 29], the “pKi (Guinea pig pancreas)” value on CCKA worked out at 5.2. At CCKB receptor, the “pKi (Mouse cortex)” value stood at 5.5. As for `Cc1cccc(NC(=O)N2CCC(O)c3ccccc3N(Cc3ccccc3)C(=O)C2)c1` (single isomer, unassigned; isomer 2) [Example 8, 1-benzyl-7-hydroxy-4-(3-methylphenyl)carbamyl-2-oxo-2,3,4,5,6,7-hexahydro-1H-1,4-benzodiazonine (isomer 2)], the values for the Ki on CCKA and at CCKB receptor were 1 µM and 10 µM, respectively.

Take `CC(=O)N1[C@H](CC23CC4CC(CC(C4)C2)C3)C(=O)N(Cc2ccccc2)c2ccccc2C(=O)C[C@H]1C(=O)N1CCC[C@H]1C(=O)O` (single isomer, unassigned; isomer 2) [Example 28]: the “pKi (Guinea pig pancreas)” value at CCKA was 4.6. Besides, the “pKi (Mouse cortex)” value at CCKB receptor is on record as 5.4.

Turning to `CC(=O)N1[C@H](CC23CC4CC(CC(C4)C2)C3)C(=O)N(Cc2ccccc2)c2ccccc2C(=O)C[C@H]1C(=O)N(C)CC(=O)O` (single isomer, unassigned; isomer 2) [Example 30], on CCKA, the “pKi (Guinea pig pancreas)” value was 5.1. Further, on CCKB receptor, the “pKi (Mouse cortex)” value worked out at 5.0. In the case of `Cc1cccc(NC(=O)N2CCC(=O)c3ccccc3N(CC(=O)OC(C)(C)C)C(=O)C2)c1` [Example 1, 1-tert-butyloxycarbonylmethyl-4-(3-methylphenyl)carbamyl-2,7-dioxo-2,3,4,5,6,7-hexahydro-1H-1,4-benzodiazonine], the Ki on CCKA is 0.2 µM; at CCKB receptor, 10 µM. Regarding `CC(C)(C)OC(=O)CN1C(=O)CN(C(=O)Nc2ccc(Cl)c(Cl)c2)CCC(=O)c2ccccc21` [Example 2, 1-tert-butyloxycarbonylmethyl-4-(3,4-dichlorophenyl)-carbamyl-2,7-dioxo-2,3,4,5,6,7-hexahydro-1H-1,4-benzodiazonine], the values for the Ki at CCKA and on CCKB receptor were 0.0501 µM and 1.26 µM, respectively. For `Cc1cccc(NC(=O)N2CCC(=O)c3ccccc3N(Cc3ccccc3)C(=O)C2)c1` [Example 3, 1-benzyl-4-(3-methylphenyl)carbamyl-2,7-dioxo-2,3,4,5,6,7-hexahydro-1H-1,4-benzodiazonine], in that order: 0.316 µM and 7.94 µM.

Take `CCOC(=O)CN1C(=O)CN(C(=O)Nc2cccc(C)c2)CCC(=O)c2ccccc21` [Example 4, 1-ethoxycarbonylmethyl-4-(3-methylphenyl)carbamyl-2,7-dioxo-2,3,4,5,6,7-hexahydro-1H-1,4-benzodiazonine]: the Ki was 3.16 µM on CCKA and 10 µM on CCKB receptor.

Turning to `Cc1cccc(NC(=O)N2CCC(=O)c3ccccc3NC(=O)C2)c1` [Example 5, 4-(3-methylphenyl)carbamyl-2,7-dioxo-2,3,4,5,6,7-hexahydro-1H-1,4-benzodiazonine], the Ki on CCKA was 5.01 µM; on CCKB receptor it was 10 µM. For `Cc1cccc(NC(=O)N2CCC(=O)c3ccccc3N(CC(=O)N3CCCC3)C(=O)C2)c1` [Example 6, 4-(3-methylphenyl)carbamyl-2,7-dioxo-1-pyrrolidinoyl-methyl-2,3,4,5,6,7-hexahydro-1H-1,4-benzodiazonine], in that order: 5.01 µM and 10 µM.

For the molecule `C=C1CCN(C(=O)Nc2cccc(C)c2)CC(=O)N(Cc2ccccc2)c2ccccc21` [Example 9, 1-benzyl-7-methylene-4-(3-methylphenyl)carbamyl-2-oxo-2,3,4,5,6,7-hexahydro-1H-1,4-benzodiazonine], the Ki on CCKA is 0.316 µM; at CCKB receptor, 3.98 µM. Consider `CCC1CCN(C(=O)c2cc3ccccc3[nH]2)CC(=O)N(Cc2ccccc2)c2ccccc21` (centres unmarked) [Example 53, 1-benzyl-7-ethyl-4-(2-indolecarbonyl)-2-oxo-2,3,4,5,6,7-hexahydro-1H-1,4-benzodiazonine], for which the Ki at CCKA was 0.631 µM.
